Data taken from patent publication US20230413812A1, “SANITIZING COMPOSITIONS CONTAINING IONIC LIQUID” (CAGE BIO, INC., priority 2020, published 2023).

Assays:
Format in all cases: cell-based
[1] = system: E. coli; test: Self-sanitizing activity of CG-101 in water and aqueous Poloxamer 407 on a surface with dried inoculum, 5 min contact
Experimental: This study was conducted to test the residual self-sanitizing activity of samples containing 5% CG-101 in water, in 5% aqueous […], and in 10% aqueous Poloxamer 407. Parameters of the experiments are listed below:
• Water (Negative Control) • 5% CG-101 Aqueous Solution (Positive Control) • 5% CG-101 in 5% Poloxamer 407 Aqueous Solution • 5% CG-101 in 10% Poloxamer 407 Aqueous solution
• 10 μl of E. coli suspension was applied on the surface and dried over 30 min • 1 ml of each test sample and control was applied on the surface with a dry inoculum • Contact time of 5 min was used • Neutralization was performed immediately after the contact time • 100 μl from each solution was plated onto agar plates and transferred to incubator set at 37 C for 48 hr. • Bacterial growth was observed after 48 hr. In the incubator.

[2] = system: Escherichia coli (E. coli); test: Residual self-sanitizing activity on hard, non-porous glass surface per EPA Protocol 01-1A (manual wear cycles); conditions: in CGB-D-100 disinfectant; lowest concentration tested
Excerpt: The purpose of this study is to test residual self-sanitizing activity of CGB-D-100 disinfectant per EPA protocol 01-1A, “Residual Self-Sanitizing Activity of Dried Chemical Residues on Hard, Non-Porous Surfaces.”
The scope of this study is to evaluate residual self-sanitizing activity of CGB-D-100 disinfectant with three different concentrations of CG-101, and to compare it to a marketed disinfectant (Microban® 24). Glass surface (microscope slides) will be used as a non-porous surface. Sterile saline solution will be used as a negative control and Microban® 24 will be used as the positive control. The method will simulate contact and touches by incorporating wear or wiping of the test surface as well as reinoculations of the test and control surfaces over 24 hours. The EPA protocol requires the use of an automated abrasion tester to simulate wear from wiping the surface. For the purposes of this protocol, abrasion or wear were be performed manually using cotton wipes.
First, the glass slides will be washed with a non-medical soap and water followed by cleaning with 70% alcohol and allowed to air dry. […]
Test product, negative control, and positive control will be applied to replicate test surfaces according to the product's Directions for Use or until surface is completely wet. […] The temperature and humidity in the lab will be recorded. […]

[3] = Antimicrobial efficacy time kill test (ASTM E2783-11, neutralization per E1054-08)
Experimental: The purpose of this study was to test antimicrobial efficacy of 1%, 3%, and 5% CG-101 disinfectant formulations.
The study was performed using the following standard protocols: • I. American Society for Testing and Materials. Standard Test Methods for Evaluation of
Inactivators of Antimicrobial Agents; Designation: E1054-08 (Reapproved 2013). West Conshohocken, PA. • II. American Society for Testing and Materials. Standard Test Method for Assessment of Antimicrobial Activity for Water Miscible Compounds Using a Time-Kill Procedure. Designation: E2783-11 (Reapproved 2016). West Conshohocken, PA.
Initial neutralization testing confirmed that the test material was adequately neutralized at all concentrations tested. The time kill procedure included triplicate testing and all plate counts were performed in duplicate
CG-101 was added to water to form mixtures of 1 wt %, 3 wt %, and 5 wt % of CG-101.

[4] = 1 wt % CG-101 in water, 1 minute
[5] = 1 wt % CG-101 in water, 5 minutes
[6] = 1 wt % CG-101 in water, at seconds
[7] = 3 wt % CG-101 in water, 1 minute
[8] = 3 wt % CG-101 in water, 5 minutes
[9] = 3 wt % CG-101 in water, at seconds
[10] = 5 wt % CG-101 in water, 1 minute
[11] = 5 wt % CG-101 in water, 5 minutes
[12] = 5 wt % CG-101 in water, at seconds

Choline geranate [CG-101]
bacterial growth on TSA plates ([1]; 5% CG-101 in 5% aqueous Poloxamer 407, 48 hr incubation): No bacterial growth | bacterial growth on TSA plates ([1]; 5% CG-101 in 10% aqueous Poloxamer 407, 48 hr incubation): No bacterial growth | bacterial growth on TSA plates ([1]; 5% CG-101 in water (positive control of this study), 48 hr incubation): No bacterial growth | concentration of CG-101 sufficient to kill all applied bacteria and to preserve the glass surface for 24 h [2]: 2% | killing [3, 4]: 99.9% | log decrease in CFU [3, 4]: > 3 log | killing [3, 5]: 99.9% | log decrease in CFU [3, 5]: > 3 log | killing [3, 6]: 99.9% | log decrease in CFU [3, 6]: > 3 log | killing [3, 7]: 99.9% | log decrease in CFU [3, 7]: > 3 log | killing [3, 8]: 99.9% | log decrease in CFU [3, 8]: > 3 log | killing [3, 9]: 99.9% | log decrease in CFU [3, 9]: > 3 log | killing [3, 10]: 99.9% | log decrease in CFU [3, 10]: > 3 log | killing [3, 11]: 99.9% | log decrease in CFU [3, 11]: > 3 log | killing [3, 12]: 99.9% | log decrease in CFU [3, 12]: > 3 log
